# Reference: ChEMBL document CHEMBL1201862, “PubChem BioAssay data set” (2004)
# The source made the active and inactive calls.
# Assays:
# Streptococcus = assay: GAS UMAA2166 growth inhibition – luminescence, BacTiterGlo, counter-screen for streptokinase expression inhibitor project, dose response (AID 1915); format: functional, organism-based;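 note: potency for reduction of bacterial viability or growth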
# Galanin receptor type 2 = Galanin receptor type 2 (Homo sapiens, UniProt O43603); assay: Dose Response cell-based high-throughput screening assay to identify antagonists of galanin receptor 2 (GALR2). [Related pubchem assays: 828, 866 ]; format: functional
# Chain of Galanin receptor type 2 (O43603 whole entry): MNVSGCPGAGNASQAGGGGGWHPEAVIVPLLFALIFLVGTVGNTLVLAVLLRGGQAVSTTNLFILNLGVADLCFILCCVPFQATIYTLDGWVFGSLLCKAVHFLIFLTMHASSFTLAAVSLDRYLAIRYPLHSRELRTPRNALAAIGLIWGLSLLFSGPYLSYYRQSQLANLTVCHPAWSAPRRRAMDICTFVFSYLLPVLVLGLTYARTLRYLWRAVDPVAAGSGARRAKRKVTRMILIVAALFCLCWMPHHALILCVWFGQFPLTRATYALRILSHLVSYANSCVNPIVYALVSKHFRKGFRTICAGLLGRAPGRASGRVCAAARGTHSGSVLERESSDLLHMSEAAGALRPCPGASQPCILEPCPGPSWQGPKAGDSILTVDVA
# [1] = molecular target: T1, Endoribonuclease toxin MazF (Escherichia coli K-12, UniProt P0AE70); assay: activation of MazEF endoribonuclease cleavage – biochemical, fluorescence, single-stranded RNA substrate, uHTS hits, dose response (AID 588481); format: functional
# T1 sequence (P0AE70 whole entry): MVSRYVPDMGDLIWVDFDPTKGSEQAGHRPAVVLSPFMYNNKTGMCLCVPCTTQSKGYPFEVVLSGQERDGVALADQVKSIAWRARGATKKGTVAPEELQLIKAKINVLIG
# [2] = tested on: Streptococcus sp. 'group A'; assay: Streptococcus pyogenes SK(-)GAS viability under kanamycin – luminescence, BacTiterGlo, confirmation, counter-screen for streptokinase expression inhibitor project, dose response (AID 1900); format: functional, organism-based
# Streptokinase A = molecular target: T2, Streptokinase A (Streptococcus pyogenes serotype M1, UniProt P10520); assay: viability-normalized secreted streptokinase activity reduction – plasminogen activation absorbance, OD405, dose response (AID 1914); format: functional, Streptococcus pyogenes M1 GAS;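 note: secreted streptokinase activity via plasminogen activation per viability signal from cell pellet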
# T2 sequence (P10520 whole entry): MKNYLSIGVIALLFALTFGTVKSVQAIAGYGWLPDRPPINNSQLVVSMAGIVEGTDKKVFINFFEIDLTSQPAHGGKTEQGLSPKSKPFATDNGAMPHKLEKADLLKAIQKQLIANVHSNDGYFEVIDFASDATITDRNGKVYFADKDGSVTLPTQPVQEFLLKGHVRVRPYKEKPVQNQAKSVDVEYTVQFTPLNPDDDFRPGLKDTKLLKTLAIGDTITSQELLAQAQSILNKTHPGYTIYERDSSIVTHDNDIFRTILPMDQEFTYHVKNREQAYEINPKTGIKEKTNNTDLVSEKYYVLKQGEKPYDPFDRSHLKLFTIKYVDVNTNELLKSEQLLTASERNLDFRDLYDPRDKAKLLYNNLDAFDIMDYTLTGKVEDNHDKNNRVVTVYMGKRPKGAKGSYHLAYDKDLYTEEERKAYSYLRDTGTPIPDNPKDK
# [3] = molecular target: T1, Endoribonuclease toxin MazF; assay: substrate-only fluorescence increase artefacts – biochemical, single-stranded RNase substrate, counter-screen for MazEF activator project, dose response (AID 588502); format: functional
# [4] = Luminescence Cell-Based Dose Response Follow up to Identify Inhibitors of Platelet Dense Granule Release. [Related pubchem assays (depositor defined):AID1663, AID1678, AID2398]; format: functional
# [5] = blockers of SFLLRN-triggered platelet ATP secretion – cell-based, human platelets, luminescence, dry powder, dose response (AID 493100); format: functional
# [6] = molecular target: Glycogen synthase kinase-3 beta (Homo sapiens, UniProt P49841); format: functional;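 note: value comes from a broad kinome profiling panel, with GSK3B as the panel member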
# Chain of Glycogen synthase kinase-3 beta (P49841 whole entry): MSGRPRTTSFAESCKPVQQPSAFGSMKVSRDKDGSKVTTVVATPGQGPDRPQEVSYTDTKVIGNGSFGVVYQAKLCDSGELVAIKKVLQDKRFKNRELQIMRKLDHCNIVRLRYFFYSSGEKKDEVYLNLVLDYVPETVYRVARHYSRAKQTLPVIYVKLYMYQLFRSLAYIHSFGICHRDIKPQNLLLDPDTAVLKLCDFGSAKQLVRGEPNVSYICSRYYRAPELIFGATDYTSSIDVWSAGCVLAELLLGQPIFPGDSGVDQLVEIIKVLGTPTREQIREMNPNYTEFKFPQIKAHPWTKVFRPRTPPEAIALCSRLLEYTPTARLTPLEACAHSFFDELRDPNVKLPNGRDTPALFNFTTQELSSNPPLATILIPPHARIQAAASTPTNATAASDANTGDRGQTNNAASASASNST
# [7] = molecular target: Dual specificity tyrosine-phosphorylation-regulated kinase 1A (Homo sapiens, UniProt Q13627); format: functional;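 note: measured against DYRK1A as one member of a broad kinome profiling panel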
# [8] = molecular target: Dual specificity protein kinase CLK4 (Homo sapiens, UniProt Q9HAZ1); format: functional
# Chain of Dual specificity protein kinase CLK4 (Q9HAZ1 whole entry): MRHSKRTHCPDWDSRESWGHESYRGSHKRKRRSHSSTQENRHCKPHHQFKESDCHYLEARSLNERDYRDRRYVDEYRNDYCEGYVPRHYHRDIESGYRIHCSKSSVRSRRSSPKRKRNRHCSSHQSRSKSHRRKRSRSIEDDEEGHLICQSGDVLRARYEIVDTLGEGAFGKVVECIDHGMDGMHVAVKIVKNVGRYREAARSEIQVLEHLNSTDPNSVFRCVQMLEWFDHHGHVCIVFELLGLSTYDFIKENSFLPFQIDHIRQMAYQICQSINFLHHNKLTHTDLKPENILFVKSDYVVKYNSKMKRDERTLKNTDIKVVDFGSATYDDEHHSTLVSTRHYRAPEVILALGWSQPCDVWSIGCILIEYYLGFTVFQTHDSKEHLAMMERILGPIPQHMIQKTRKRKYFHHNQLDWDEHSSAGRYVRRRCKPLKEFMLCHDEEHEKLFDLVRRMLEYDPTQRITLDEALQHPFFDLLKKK
# [9] = molecular target: Glycogen synthase kinase-3 alpha (Homo sapiens, UniProt P49840); format: functional;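 note: GSK3A result taken from a broad kinome-wide kinase panel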
# Chain of Glycogen synthase kinase-3 alpha (P49840 whole entry): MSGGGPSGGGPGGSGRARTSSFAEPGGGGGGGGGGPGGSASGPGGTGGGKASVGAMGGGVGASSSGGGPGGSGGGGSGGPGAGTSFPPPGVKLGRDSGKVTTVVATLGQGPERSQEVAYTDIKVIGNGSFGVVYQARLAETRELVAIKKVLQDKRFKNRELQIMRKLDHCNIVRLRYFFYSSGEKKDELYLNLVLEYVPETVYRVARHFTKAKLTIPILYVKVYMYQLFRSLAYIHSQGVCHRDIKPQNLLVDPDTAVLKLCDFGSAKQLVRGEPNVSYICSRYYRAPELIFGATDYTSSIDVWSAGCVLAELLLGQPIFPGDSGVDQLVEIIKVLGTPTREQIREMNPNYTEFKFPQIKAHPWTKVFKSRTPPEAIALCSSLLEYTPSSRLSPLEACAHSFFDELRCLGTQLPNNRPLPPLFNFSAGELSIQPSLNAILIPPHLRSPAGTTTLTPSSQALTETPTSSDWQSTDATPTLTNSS
# HEK293 [10] = assay: SAR Analysis of small molecule inhibitors of T-cell specific antigen receptor-induced NF-kB activation in a HEK-293T cell line using a luminescence assay - Set 2. [Related pubchem assays (depositor defined):AID435003, AID435012, AID489026]; format: functional, cell-based; settings: Homo sapiens
# HEK293 [11] = assay: HEK293T cell viability loss, resazurin readout – resazurin fluorescence, cytotoxicity control for NF-kB activator project, SAR follow-up (AID 493251); format: functional, cell-based; settings: Homo sapiens
# Jurkat = assay: SAR Analysis of small molecule inhibitors of T-cell specific antigen receptor-induced NF-kB activation in a Jurkat cell line using a luminescence assay - Set 2. [Related pubchem assays (depositor defined):AID435003, AID435012, AID465]; format: functional, cell-based; settings: Homo sapiens
# DNA topoisomerase = DNA topoisomerase (Yersinia pestis, UniProt A0A2S9PM60); assay: Yersinia topoisomerase I cleavage product accumulation – biochemical, cherry-pick, dose response (AID 588525)
# Chain of DNA topoisomerase (A0A2S9PM60 whole entry): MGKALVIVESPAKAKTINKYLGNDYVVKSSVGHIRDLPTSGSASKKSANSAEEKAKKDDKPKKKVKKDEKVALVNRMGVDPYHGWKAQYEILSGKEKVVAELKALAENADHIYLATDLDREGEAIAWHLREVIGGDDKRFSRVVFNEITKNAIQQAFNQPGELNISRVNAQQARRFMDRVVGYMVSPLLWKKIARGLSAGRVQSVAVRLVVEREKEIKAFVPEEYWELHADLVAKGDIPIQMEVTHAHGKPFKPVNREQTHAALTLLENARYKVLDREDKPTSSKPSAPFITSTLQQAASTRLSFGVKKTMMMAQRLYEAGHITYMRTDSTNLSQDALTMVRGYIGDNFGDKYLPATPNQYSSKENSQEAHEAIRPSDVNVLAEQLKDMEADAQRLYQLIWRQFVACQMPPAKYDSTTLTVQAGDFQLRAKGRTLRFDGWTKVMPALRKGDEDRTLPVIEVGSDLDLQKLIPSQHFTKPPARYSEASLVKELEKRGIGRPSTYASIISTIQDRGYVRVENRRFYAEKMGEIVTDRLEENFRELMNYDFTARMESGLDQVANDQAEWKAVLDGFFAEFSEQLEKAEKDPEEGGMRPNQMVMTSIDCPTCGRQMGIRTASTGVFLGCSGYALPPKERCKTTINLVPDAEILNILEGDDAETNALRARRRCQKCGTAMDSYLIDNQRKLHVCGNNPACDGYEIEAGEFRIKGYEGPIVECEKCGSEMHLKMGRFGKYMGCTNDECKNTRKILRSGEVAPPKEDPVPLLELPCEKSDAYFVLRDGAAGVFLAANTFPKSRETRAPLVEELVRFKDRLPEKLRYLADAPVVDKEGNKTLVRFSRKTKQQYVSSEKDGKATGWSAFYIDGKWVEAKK
# [12] = molecular target: T3, Acyl-homoserine lactone acylase PvdQ (Pseudomonas aeruginosa (strain LESB58), UniProt Q9I194); assay: PvdQ acylase enzyme activity blockers – biochemical, fluorescence, plate reader and imaging, cherry-picks, dose response (AID 493231)
# T3 sequence (Q9I194 whole entry): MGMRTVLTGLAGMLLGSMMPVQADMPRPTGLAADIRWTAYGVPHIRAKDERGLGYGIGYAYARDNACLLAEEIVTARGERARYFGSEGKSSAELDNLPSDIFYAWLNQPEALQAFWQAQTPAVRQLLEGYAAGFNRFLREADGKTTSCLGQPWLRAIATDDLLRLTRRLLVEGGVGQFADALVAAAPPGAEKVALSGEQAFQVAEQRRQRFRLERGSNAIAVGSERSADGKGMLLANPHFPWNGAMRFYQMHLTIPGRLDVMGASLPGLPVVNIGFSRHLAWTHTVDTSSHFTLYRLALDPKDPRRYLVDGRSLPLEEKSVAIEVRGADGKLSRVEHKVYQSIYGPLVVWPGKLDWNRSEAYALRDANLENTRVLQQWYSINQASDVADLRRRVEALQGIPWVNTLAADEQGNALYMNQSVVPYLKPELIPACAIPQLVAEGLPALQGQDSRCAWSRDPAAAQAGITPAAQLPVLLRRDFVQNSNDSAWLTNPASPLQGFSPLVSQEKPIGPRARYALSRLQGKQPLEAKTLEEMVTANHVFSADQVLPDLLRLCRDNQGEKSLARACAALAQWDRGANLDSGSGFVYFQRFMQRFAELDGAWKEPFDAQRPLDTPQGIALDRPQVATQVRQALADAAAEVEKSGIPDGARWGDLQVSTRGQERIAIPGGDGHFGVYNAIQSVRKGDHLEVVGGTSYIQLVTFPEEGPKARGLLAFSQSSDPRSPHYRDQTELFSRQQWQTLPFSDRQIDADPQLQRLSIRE
# HeLa = assay: toxicity to human HeLa cells – cell-based, 48 h, plate reader, cherry-picks, cytotoxicity control, dose response (AID 504942); format: functional
# [13] = Mcl1-dependent cancer cell viability – HMC-1-8 cells, luminescence, dry powder, selectivity assay for A1 inhibitor project, dose response (AID 504415); format: functional, cell-based; settings: Homo sapiens
# [14] = HEK-293T cell viability reduction – luminescence, B-cell screen hits, cytotoxicity control for BCR NF-kB inhibitor project, dose response (AID 489021); format: functional, cell-based;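 note: HEK-293T cells carrying an NF-kB luciferase reporter; cells exposed to compound for about 14 hours before viability readout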
# [15] = molecular target: Protein disulfide-isomerase (Homo sapiens, UniProt P07237); assay: inhibition of PDI-driven insulin aggregation – biochemical, turbidity, absorbance, cherry-picked samples, dose response (AID 602350); format: functional
# Chain of Protein disulfide-isomerase (P07237 whole entry): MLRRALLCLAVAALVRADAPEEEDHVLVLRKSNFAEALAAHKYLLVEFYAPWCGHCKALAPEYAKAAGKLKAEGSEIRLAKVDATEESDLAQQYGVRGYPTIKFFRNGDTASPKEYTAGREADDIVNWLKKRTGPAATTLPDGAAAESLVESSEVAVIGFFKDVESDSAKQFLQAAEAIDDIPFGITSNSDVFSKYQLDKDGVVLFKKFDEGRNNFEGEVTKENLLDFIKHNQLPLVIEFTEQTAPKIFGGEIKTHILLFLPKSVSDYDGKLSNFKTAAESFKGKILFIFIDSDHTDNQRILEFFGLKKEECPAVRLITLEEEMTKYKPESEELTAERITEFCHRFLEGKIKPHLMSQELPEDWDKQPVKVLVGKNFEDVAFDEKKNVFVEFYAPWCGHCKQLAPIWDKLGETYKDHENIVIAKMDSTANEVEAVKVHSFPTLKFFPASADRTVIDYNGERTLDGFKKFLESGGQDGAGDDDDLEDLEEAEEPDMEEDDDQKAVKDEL
# [16] = molecular target: Botulinum neurotoxin type A (Clostridium botulinum (strain Hall / ATCC 3502 / NCTC 13319 / Type A), UniProt P0DPI1); assay: High-throughput multiplex microsphere dose response for inhibitors of toxin protease, specifically Botulinum neurotoxin light chain A protease, compounds from Cherry Pick 01.; format: functional; settings: read-out: EC50_MICROM
# Chain of Botulinum neurotoxin type A (P0DPI1 2-448 limits assumed): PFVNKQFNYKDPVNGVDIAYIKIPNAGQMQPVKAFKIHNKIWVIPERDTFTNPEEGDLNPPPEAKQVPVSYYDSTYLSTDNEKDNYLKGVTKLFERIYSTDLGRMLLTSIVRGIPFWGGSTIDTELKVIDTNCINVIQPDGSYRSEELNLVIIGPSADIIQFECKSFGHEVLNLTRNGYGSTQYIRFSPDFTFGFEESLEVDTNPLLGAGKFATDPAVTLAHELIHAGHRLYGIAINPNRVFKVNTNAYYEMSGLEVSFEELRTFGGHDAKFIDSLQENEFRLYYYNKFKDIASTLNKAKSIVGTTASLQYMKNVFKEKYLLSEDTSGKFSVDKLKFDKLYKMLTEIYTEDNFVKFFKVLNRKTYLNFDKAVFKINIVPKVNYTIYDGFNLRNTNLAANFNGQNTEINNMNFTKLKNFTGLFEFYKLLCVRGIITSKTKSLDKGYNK
# [17] = molecular target: Botulinum neurotoxin type F (Clostridium botulinum, UniProt P30996); assay: High-throughput multiplex microsphere dose response for inhibitors of toxin protease, specifically Botulinum neurotoxin light chain F protease, compounds from Cherry Pick 01.; format: functional; settings: read-out: EC50_MICROM
# Chain of Botulinum neurotoxin type F (P30996 1-436 limits assumed): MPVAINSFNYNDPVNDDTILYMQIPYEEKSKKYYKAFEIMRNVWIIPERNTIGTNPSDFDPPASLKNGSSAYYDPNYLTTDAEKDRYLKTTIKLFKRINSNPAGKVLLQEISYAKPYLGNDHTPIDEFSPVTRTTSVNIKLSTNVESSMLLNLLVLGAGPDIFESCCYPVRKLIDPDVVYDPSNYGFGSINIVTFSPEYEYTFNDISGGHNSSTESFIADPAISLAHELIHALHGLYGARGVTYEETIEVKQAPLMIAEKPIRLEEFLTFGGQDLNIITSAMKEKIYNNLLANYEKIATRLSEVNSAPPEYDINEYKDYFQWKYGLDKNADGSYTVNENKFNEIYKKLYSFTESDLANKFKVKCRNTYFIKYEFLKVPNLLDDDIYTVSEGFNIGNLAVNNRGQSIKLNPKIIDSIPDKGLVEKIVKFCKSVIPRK
# [18] = molecular target: T4, Zinc finger protein mex-5 (Caenorhabditis elegans, UniProt Q9XUB2); assay: potency of MEX-5 RNA-binding blockers – biochemical, C. elegans, fluorescence polarization, dose response (AID 1960)
# T4 sequence (Q9XUB2 whole entry): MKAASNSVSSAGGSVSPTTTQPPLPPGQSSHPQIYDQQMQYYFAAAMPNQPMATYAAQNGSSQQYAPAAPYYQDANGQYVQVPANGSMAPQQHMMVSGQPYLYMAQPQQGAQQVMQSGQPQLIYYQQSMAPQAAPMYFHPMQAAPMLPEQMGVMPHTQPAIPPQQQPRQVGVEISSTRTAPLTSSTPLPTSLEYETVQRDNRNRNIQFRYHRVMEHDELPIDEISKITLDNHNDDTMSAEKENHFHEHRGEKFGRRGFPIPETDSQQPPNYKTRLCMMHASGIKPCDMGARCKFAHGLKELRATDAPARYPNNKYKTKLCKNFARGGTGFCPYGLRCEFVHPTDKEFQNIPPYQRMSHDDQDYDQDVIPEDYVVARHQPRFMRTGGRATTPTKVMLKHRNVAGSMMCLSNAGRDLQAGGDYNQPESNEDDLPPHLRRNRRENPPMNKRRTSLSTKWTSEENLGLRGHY
# Lethal factor = Lethal factor (Bacillus anthracis, UniProt P15917); assay: High-throughput multiplex microsphere dose response for inhibitors of toxin protease, specifically Lethal Factor protease, compounds from Cherry Pick 01.; format: functional; settings: read-out: EC50_MICROM
# Chain of Lethal factor (P15917 whole entry, the tested form may be a part): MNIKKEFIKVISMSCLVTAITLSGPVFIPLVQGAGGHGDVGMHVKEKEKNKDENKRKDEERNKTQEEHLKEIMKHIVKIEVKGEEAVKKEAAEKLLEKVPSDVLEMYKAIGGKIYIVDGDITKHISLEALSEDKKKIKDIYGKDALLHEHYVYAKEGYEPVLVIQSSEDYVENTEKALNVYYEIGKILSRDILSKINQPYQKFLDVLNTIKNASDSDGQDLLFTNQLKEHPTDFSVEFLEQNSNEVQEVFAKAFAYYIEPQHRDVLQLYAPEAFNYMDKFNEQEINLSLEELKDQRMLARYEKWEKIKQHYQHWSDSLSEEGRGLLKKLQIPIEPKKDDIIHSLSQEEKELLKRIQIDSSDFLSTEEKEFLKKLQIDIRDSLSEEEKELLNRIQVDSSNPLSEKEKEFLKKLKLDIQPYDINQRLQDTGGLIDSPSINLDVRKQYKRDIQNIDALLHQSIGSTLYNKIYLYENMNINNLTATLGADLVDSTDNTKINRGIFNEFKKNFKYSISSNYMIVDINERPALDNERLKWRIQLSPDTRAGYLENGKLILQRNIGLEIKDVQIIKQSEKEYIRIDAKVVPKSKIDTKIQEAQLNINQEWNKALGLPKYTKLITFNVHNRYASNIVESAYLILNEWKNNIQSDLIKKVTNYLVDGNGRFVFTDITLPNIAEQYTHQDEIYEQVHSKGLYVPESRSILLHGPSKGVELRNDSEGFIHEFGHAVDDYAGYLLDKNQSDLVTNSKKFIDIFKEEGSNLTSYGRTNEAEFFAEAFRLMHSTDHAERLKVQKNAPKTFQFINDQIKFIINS
# [19] = molecular target: T5, RNA-binding protein pos-1 (Caenorhabditis elegans, UniProt G5EF15); assay: disruptors of C. elegans POS-1 RNA interaction – biochemical, fluorescence polarization, dose response (AID 1964);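 note: purified POS-1 fused to maltose binding protein made in E. coli; potency of compounds blocking POS-1 binding to fluorescent RNA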
# T5 sequence (G5EF15 whole entry): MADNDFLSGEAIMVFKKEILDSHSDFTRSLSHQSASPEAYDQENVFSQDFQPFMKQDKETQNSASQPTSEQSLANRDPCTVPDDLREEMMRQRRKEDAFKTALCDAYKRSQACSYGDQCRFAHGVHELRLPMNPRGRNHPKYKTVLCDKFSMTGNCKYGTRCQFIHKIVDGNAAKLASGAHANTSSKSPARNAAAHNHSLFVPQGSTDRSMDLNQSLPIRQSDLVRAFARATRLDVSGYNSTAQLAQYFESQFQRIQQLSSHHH
# [20] = molecular target: T6, Corticotropin-releasing factor receptor 2/Corticotropin-releasing factor-binding protein (Homo sapiens, UniProt P24387+Q13324); assay: activators of CRF receptor 2 with binding protein – uHTS hits, confirmation (AID 602473); format: functional; settings: read-out: EC50_Mean
# T6 sequence (Q13324 whole entry): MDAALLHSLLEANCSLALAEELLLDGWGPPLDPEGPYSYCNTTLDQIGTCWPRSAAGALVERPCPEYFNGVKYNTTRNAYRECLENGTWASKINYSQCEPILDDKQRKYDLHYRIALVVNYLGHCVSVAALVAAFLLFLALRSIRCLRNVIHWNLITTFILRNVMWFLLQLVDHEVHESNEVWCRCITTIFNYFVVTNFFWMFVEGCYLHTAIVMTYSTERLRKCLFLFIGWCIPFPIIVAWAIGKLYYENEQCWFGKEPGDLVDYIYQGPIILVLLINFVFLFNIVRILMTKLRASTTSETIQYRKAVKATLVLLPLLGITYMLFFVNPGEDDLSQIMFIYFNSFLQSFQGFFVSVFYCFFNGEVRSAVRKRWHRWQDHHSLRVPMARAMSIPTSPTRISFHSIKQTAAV
# T6 sequence (P24387 whole entry): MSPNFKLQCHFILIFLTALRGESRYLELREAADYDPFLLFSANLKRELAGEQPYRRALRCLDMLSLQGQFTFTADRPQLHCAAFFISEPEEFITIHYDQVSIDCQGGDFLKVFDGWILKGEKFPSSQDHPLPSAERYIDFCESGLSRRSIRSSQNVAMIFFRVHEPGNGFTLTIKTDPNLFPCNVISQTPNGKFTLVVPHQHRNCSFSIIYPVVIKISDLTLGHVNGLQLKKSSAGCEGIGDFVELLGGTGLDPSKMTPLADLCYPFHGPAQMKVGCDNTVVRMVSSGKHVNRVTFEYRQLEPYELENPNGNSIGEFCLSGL
# [21] = molecular target: Beta-2 adrenergic receptor (Homo sapiens, UniProt P07550); assay: ADRB2 activation measured by internalization – cell-based, FAP fluorogen, flow cytometry, cherry pick 1, dose response (AID 588763); format: functional
structure (smiles),measurement,setting,value
O=C(Cc1cccs1)Nc1cccc(-c2nc3cc4ccccc4cc3[nH]2)c1,EC50,Streptococcus,14.9 µM (active)
same,IC50,Galanin receptor type 2,> 42 µM (not active)
same,EC50,[1],> 99 µM (inactive)
same,EC50,[2],4.51 µM (active)
same,EC50,Streptokinase A,> 150 µM (not active)
same,EC50,[3],> 99 µM (inactive)
CC(=O)Nc1ccc(/C(C)=N/NC(=O)C2CCCC2)cc1,EC50,[4],11.3 µM (active)
same,AC50,[5],126 µM (active)
COc1nc(N)c(C#N)c(-c2ccc(Cl)cc2Cl)c1C#N,Ki,[6],2.51 µM (active)
same,Ki,[7],5.01 µM (active)
same,Ki,[8],7.94 µM (active)
same,Ki,[9],2.51 µM (active)
CCCCNC(=O)CCc1nc(-c2ccc(C(C)(C)C)cc2)no1,IC50,HEK293 [10],14.5 µM (active)
same,IC50,HEK293 [11],> 80 µM (inactive)
same,IC50,Jurkat,> 79 µM (inactive)
O=C(C[C@H]1C/C=C\CC[C@H](Cc2ccc(F)cc2)C(=O)O[C@@H](c2ccccc2)CNC1=O)N[C@@H](CO)Cc1ccccc1,AC50,DNA topoisomerase,> 38 µM (inactive)
Cc1cc(NC(=O)Nc2ccccc2[N+](=O)[O-])no1,AC50,[12],2.02 µM (active)
same,AC50,HeLa,> 380 µM (inactive)
O=C(Oc1cccc(/C=N/Nc2nc(Nc3ccccc3)nc(N3CCOCC3)n2)c1)c1ccco1,EC50,Streptococcus,16 µM (active)
same,AC50,[13],56.1 µM (active)
same,EC50,[2],9.28 µM (active)
same,EC50,Streptokinase A,> 150 µM (not active)
same,IC50,[14],> 80 µM (inactive)
C[C@@H]1CN([C@H](C)CO)C(=O)c2cccc(NS(C)(=O)=O)c2O[C@H]1CN(C)Cc1ccc(Oc2ccccc2)cc1,AC50,[15],18.8 µM (active)
O=c1c(/C=C(\O)c2ccccc2)nc2ccccc2n1-c1ccccc1,EC50,[16],20 µM (inactive)
same,EC50,[17],20 µM (inactive)
same,EC50,[18],6.1 µM (inconclusive)
same,EC50,Lethal factor,20 µM (inactive)
same,EC50,[19],78.2 µM (inconclusive)
same,EC50,[20],11.6 µM (active)
CCc1ccc(CN2CCC(Oc3ccc(C(=O)N4CCCC4)cc3)CC2)cc1,EC50,[21],0.936 µM (active)
